Laboratory results: US11173135B2 (Thiogenesis Therapeutics, Inc., priority 2016, dated 2021)

Experiments:
[1] = Pharmacokinetic study of TTI-0602: cysteamine in blood plasma after gavage; type: in vivo, Sprague-Dawley rats
Description: Thus in the discussion below, and in the accompanying figures, a “30 mg/kg” dose of TTI-0602 means 77.92 mg/kg was administered, a “60 mg/kg” dose of TTI-0602 means 155.84 mg/kg was administered and a “120 mg/kg” dose of TTI-0602 means 311.68 mg/kg was administered. The purpose of this nomenclature, which is widely used in the literature concerning cysteamine salts, is to facilitate comparison of doses of different cysteamine precursors and cysteamine salts.
The TTI-0602 doses were prepared for 250 gram rats, but the actual masses of the rats at the time of drug administration varied from 267-300 grams, so the actual doses, normalized to body weight, ranged from 26.1-27.1 mg/kg in group 1, 51.7-56.2 mg/kg in group 2 and 108.3-109.5 mg/kg in group 3. Nonetheless, for convenience those doses are referred to as 30, 60 and 120 mg/kg.
Blood samples were obtained from rats immediately before dosing and 5, 10, 20, 30, 45, 60, 90, 120, 180, 240, 300 and 600 minutes after dosing via carotid artery catheters surgically implanted before the PK study. Plasma was obtained from blood by centrifugation and snap frozen. Several days later plasma samples were thawed on ice and each plasma sample was aliquoted to two paired tubes (20 μL per tube), one of which was processed for measurement of thiols (after quantitative disulfide bond reduction), while the other was processed for analysis of disulfides.
To quantitatively reduce disulfide bonds the plasma in the first tube was treated with 5 mM tris(2-carboxyethyl)phosphine (TCEP), a selective and potent disulfide bond reducing agent, using a protocol reported by Dohil et al. (2012). Briefly, 2.2 ul of freshly prepared 50 mM TCEP stock solution was added to 20 ul of plasma and the sample incubated at 37 degrees C. for 45 minutes. […]
The denatured protein was pelleted by centrifugation at 14,000 rpm for 10 minutes at 4 degrees C. in an Eppendorf microcentrifuge. […] Metabolites were analyzed using a Nexera X2 U-HPLC (Shimadzu) and a Q-Exactive hybrid quadrupole Orbitrap mass spectrometer (Thermo Fisher Scientific). […]

ALT and AST in plasma = assay: Example 9 NASH patient case: plasma liver enzymes; type: in vivo, human; settings: within six weeks of initiating therapy; with vitamin C and vitamin E
Description: The daily dose of vitamin C is 2 grams and the daily dose of vitamin E is 800 international units of alpha tocopherol, RRR stereoisomer, which amounts to 533.3 milligrams per day (1 IU of tocopherol is defined as % milligrams of RRR-alpha-tocopherol). Half those amounts are administered twice per day.
Drug is administered in two divided doses (1,392 mg each) at 10 to 12 hour intervals, with breakfast and dinner.
In the second category (dynamic markers of drug response) levels of ALT and AST in plasma are followed over time as an index of ongoing hepatocyte damage. […] If ALT and AST levels had not dropped by 50% the regimen would have been discontinued.

[2] = cystinuria patients; cited from earlier work
cystinosis patients = settings: high doses, syrup between meals; cited from earlier work
[3] = Dissolution of TTI-0602 dose in saline; type: physicochemical; settings: 120 mg/kg dose in 3 milliliters of saline
[4] = Analysis of gastrointestinal contents at end of PK study; type: in vivo, Sprague-Dawley rats; settings: 120 mg/kg rats, ten hours after dosing
Description: (§1) In addition to the plasma samples, gastrointestinal contents (stomach contents, proximal small intestinal contents, distal small intestinal contents and cecum/colon contents), liver, kidney and spleen were obtained from rats at the end of the study (10.5 hours after dosing) and snap frozen. Tissue levels of cysteamine, N-acetyl cysteamine and pantothenic acid were measured in the gastrointestinal contents and in liver and kidney tissue. […]

[5] = Tissue levels of cysteamine in liver and kidney at end of PK study; type: in vivo, Sprague-Dawley rats; settings: 10.5 hours after TTI-0602 120 mg/kg, all three rats
Description: as §1

[6] = cited from earlier work
[7] = Example 8 cystinosis patient cases: plasma cysteamine levels; type: in vivo, human
Source text: (§2) Dose formulations and treatment regimens for three patients with cystinosis are described, to illustrate both demographic variability in the patient population and how inter-individual biochemical variation in drug absorption, metabolism and response can be overcome by exploiting the drug and dosage form flexibility provided by the invention. These examples illustrate the principles of cysteamine precursor selection, dosage form selection and dose regimen individualization.

[8] = tested on: white blood cell (WBC) cystine; assay: Example 8 cystinosis patient cases: white blood cell cystine; type: in vivo, human
Source text: as §2
Disease control is monitored via periodic measurement of white blood cell cystine levels. The therapeutic target, as for all cystinosis patients, is to suppress white blood cell (WBC) cystine to less than 1 nanomole of ½ cystine per mg of WBC protein. […] If this higher dose is still not effective in controlling WBC cystine levels the dose can be further increased in increments of 150 mg/day.

Pseudomonas aeruginosa = settings: cited from earlier work
kidney fibrosis = settings: two mouse models; cited from earlier work
[9] = tested on: CYP1A2, CYP2B6, CYP2C8, CYP2C9, CYP2C19, CYP2D6, CYP2E1, CYP2A6, CYP3A4; settings: in vitro; cited from earlier work
[10] = tested on: cancer cell lines and xenograft models; settings: cited from earlier work
[11] = Lynovex from Novabiotics; cited from earlier work
Plasmodium Falciparum = settings: in vitro and in mouse models of malaria; cited from earlier work
[12] = tested on: CYP1A2, CYP2A6, CYP2B6, CYP2C8, CYP2C9, CYP2C19, CYP2D6, CYP2E1 and CYP3A4; settings: in vitro; cited from earlier work
children with NAFLD = settings: pediatric NAFLD patients treated for 24 weeks; cited from earlier work
[13] = tested on: erythrocytes from sickle cell disease patients; settings: hypoxic conditions; cited from earlier work
[14] = administered to fasting patients; cited from earlier work
R6/2 HD mouse model = settings: R6/2 mouse; cited from earlier work
[15] = in vivo; cited from earlier work
[16] = cysteamine hydrochloride at 30 mg/kg cysteamine base, gavage

Cl.NCCS [cysteamine HCl, cysteamine hydrochloride]
shape of the plasma cysteamine concentration-time curve ([1]; cysteamine hydrochloride 30 mg/kg vs TTI-0602 120 mg/kg): a high, sharp peak
peak plasma cysteamine concentration [1, 16]: over 200 uM
time by which cysteamine concentration declined to less than half maximal [1, 16]: ≤ 90 min

CC(=O)NC(CSSCCN)C(=O)O (centres unmarked) [cysteamine-N-acetylcysteine, cysteamine-N-acetylcysteine disulfide]
fall in plasma ALT (ALT and AST in plasma): at least 50%
fall in plasma AST (ALT and AST in plasma): at least 50%

CC(S)C(=O)NCC(=O)O (stereo not drawn) [Alpha-mercaptopropionylglycine]
tolerability [2]: not tolerated by about one third of patients

CC(C)(S)[C@@H](N)C(=O)O [penicillamine]
tolerability [2]: not well tolerated by most patients

CC(C)(CO)[C@@H](O)C(=O)NCCC(=O)NCCSSCCNC(=O)CCNC(=O)[C@H](O)C(C)(C)CO [pantethine]
gastrointestinal side effect (cystinosis patients): caused diarrhea

CC(=O)NCCSSCCNC(=O)CCNC(=O)[C@H](O)C(C)(C)CO [TTI-0602, N-acetylcysteamine-(R)-pantetheine disulfide]
dissolution of dose in saline [3]: did not completely dissolve in saline
undissolved drug in gastrointestinal contents [4]: a substantial amount of undissolved drug remained stuck in the stomachs of rats 8 and 9
tissue level of cysteamine in kidney [5]: over 50 uM
tissue level of cysteamine in liver [5]: over 50 uM

NCCS.O=C(O)C(O)C(O)C(=O)O (centres unmarked) [cysteamine bitartrate]
time by which cysteamine levels returned to baseline ([6]; cysteamine bitartrate 20 mg/kg cysteamine base equivalent): ≤ 2 h
cysteamine eliminated by 150 minutes (inferred) ([6]; cysteamine bitartrate 20 mg/kg, tissue): over 95%
tissue half life of cysteamine ([6]; cysteamine bitartrate 20 mg/kg): 25 to 29 min

CC(C)(CO)[C@@H](O)C(=O)NCCC(=O)NCCSSCCN [cysteamine-pantetheine disulfide, cysteamine-(R)-pantetheine disulfide]
plasma cysteamine level six hours after the morning dose ([7]; Patient 2, 1,800 mg/day as IR/DR/SR powders): 22 µM
plasma cysteamine level 12 hours after the morning dose ([7]; Patient 2, immediately before the evening dose): 4 µM
WBC cystine level ([8]; Patient 2, after sustained release component increased from 540 to 800 mg/day): 0.9 nanomoles of ½ cystine per mg protein
WBC cystine level ([8]; Patient 2, after two months, 1,800 mg/day cysteamine free base as IR/DR/SR powders): 1.34 nanomoles of ½ cystine per mg of protein

NCCS [cysteamine bitartrate]
Cmax ([6]; read-out: Cmax of cysteamine, cysteamine bitartrate 20 mg/kg cysteamine base equivalent): 81.9 µM

NCCS [cysteamine, 2-aminoethanethiol]
effect on biofilms (Pseudomonas aeruginosa; P. aeruginosa biofilms): prevented the formation of, and disrupted established P. aeruginosa biofilms
bactericidal activity (Pseudomonas aeruginosa; Pseudomonas aeruginosa and other CF pathogens, Lynovex from Novabiotics): bactericidal
efficacy in kidney fibrosis models (kidney fibrosis): effective
metabolism by CYP enzymes [9]: likely to be metabolized by multiple CYP enzymes, including CYP1A2, CYP2B6, CYP2C8, CYP2C9, CYP2C19, CYP2D6, and CYP2E1, but not by CYP2A6 or CYP3A4
matrix metalloproteinase activity ([10]; animal xenografts and cancer cell lines): significantly decreased
survival of mice ([10]; xenograft models): prolonged survival of mice in a dose-dependent manner without toxicity
mucolytic activity vs. currently available mucolytic agents [11]: at least comparable mucolytic activity
proliferation of the parasite (Plasmodium Falciparum): inhibits proliferation
inhibition of CYP enzymes [12]: not an inhibitor of CYP1A2, CYP2A6, CYP2B6, CYP2C8, CYP2C9, CYP2C19, CYP2D6, CYP2E1 and CYP3A4
high molecular weight adiponectin multimers (children with NAFLD): increased levels of high molecular weigh adiponectin multimers
sickling [13]: marked inhibition of sickling
inter-patient variation in cysteamine plasma levels [14]: up to four fold
beneficial effects in HD mouse model (R6/2 HD mouse model): amelioration of weight loss and motor abnormalities, and prolongation of survival

CC(C)(COP(=O)(O)O)[C@@H](O)C(=O)NCCC(=O)NCCS [4-phosphopantetheine]
half life in blood [15]: over 3 hours

CC(S)C(=O)NCC(=O)O (centres unmarked) [tiopronin]
tolerability [2]: not well tolerated by most patients
